Key:
Type in all cases: in vivo
[1] = tested on: Bemisia tabaci (Cotton White fly); test: Example B1: Bemisia tabaci, sprayed cotton leaf discs, adult mortality; details: foliar, 144 h, application rate of 200 ppm, adult white flies, 6 days after incubation
Experimental: Example B1: Bemisia tabaci (Cotton White fly)
Cotton leaf discs were placed on agar in 24-well microtiter plates and sprayed with aqueous test solutions prepared from 10′000 ppm DMSO stock solutions. After drying the leaf discs were infested with adult white flies. The samples were checked for mortality 6 days after incubation.

[2] = tested on: Diabrotica balteata (Corn Root Worm); test: Example B2: Diabrotica balteata, sprayed maize sprouts, L2 larvae; details: 96 h, application rate of 200 ppm, 4 days after infestation
Experimental: Example B2: Diabrotica balteata (Corn Root Worm)
Maize sprouts, placed on an agar layer in 24-well microtiter plates were treated with aqueous test solutions prepared from 10′000 ppm DMSO stock solutions by spraying. After drying, the plates were infested with L2 larvae (6 to 10 per well). The samples were assessed for mortality and growth inhibition in comparison to untreated samples 4 days after infestation.

[3] = tested on: Euschistus heros (Neotropical Brown Stink Bug); test: Example B3: Euschistus heros, sprayed soybean leaf, N-2 nymphs; details: 120 h, application rate of 200 ppm, 5 days after infestation, read-out: effect in at least one of the two categories (mortality or growth inhibition)
Experimental: Example B3: Euschistus heros (Neotropical Brown Stink Bug)
Soybean leaf on agar in 24-well microtiter plates were sprayed with aqueous test solutions prepared from 10′000 ppm DMSO stock solutions. After drying the leaf were infested with N-2 nymphs. The samples were assessed for growth inhibition in comparison to untreated samples 5 days after infestation.

[4] = tested on: Frankliniella occidentalis (Western Flower Thrips); test: Example B4: Frankliniella occidentalis, sprayed sunflower leaf discs, mixed ages; details: foliar, 168 h, application rate of 200 ppm, population of mixed ages, 7 days after infestation
Experimental: Example B4: Frankliniella occidentalis (Western Flower Thrips)
(§1) Sunflower leaf discs were placed on agar in 24-well microtiter plates and sprayed with aqueous test solutions prepared from 10′000 DMSO stock solutions. After drying the leaf discs were infested with a Frankliniella population of mixed ages. The samples were assessed for mortality 7 days after infestation.

[5] = tested on: Myzus persicae (Green Peach Aphid); test: Example B5: Myzus persicae, sprayed sunflower leaf discs, mixed ages; details: foliar, 144 h, application rate of 200 ppm, aphid population of mixed ages, 6 days after infestation
Experimental: Example B5: Myzus persicae (Green Peach Aphid)
Sunflower leaf discs were placed on agar in a 24-well microtiter plate and sprayed with aqueous test solutions prepared from 10′000 ppm DMSO stock solutions. After drying, the leaf discs were infested with an aphid population of mixed ages. The samples were assessed for mortality 6 days after infestation.

[6] = tested on: Plutella xylostella (Diamond Back Moth); test: Example B6: Plutella xylostella, treated artificial diet, L2 larvae; details: 120 h, application rate of 200 ppm, 5 days after infestation, read-out: effect in at least one of the two categories (mortality or growth inhibition)
Experimental: Example B6: Plutella xylostella (Diamond Back Moth)
24-well microtiter plates with artificial diet were treated with aqueous test solutions prepared from 10′000 ppm DMSO stock solutions by pipetting. After drying, the plates were infested with L2 larvae (10 to 15 per well). The samples were assessed for mortality and growth inhibition in comparison to untreated samples 5 days after infestation.

[7] = tested on: Spodoptera littoralis (Egyptian Cotton Leaf Worm); test: Example B7: Spodoptera littoralis, sprayed cotton leaf discs, L1 larvae; details: foliar, 72 h, application rate of 200 ppm, 3 days after infestation, read-out: control (at least one of mortality, anti-feedant effect, and growth inhibition)
Experimental: Example B7: Spodoptera littoralis (Egyptian Cotton Leaf Worm)
Cotton leaf discs were placed on agar in 24-well microtiter plates and sprayed with aqueous test solutions prepared from 10′000 ppm DMSO stock solutions. After drying the leaf discs were infested with five L1 larvae. The samples were assessed for mortality, anti-feedant effect, and growth inhibition in comparison to untreated samples 3 days after infestation. Control of Spodoptera littoralis by a test sample is when at least one of mortality, anti-feedant effect, and growth inhibition is higher than the untreated sample.

[8] = tested on: Spodoptera littoralis (Egyptian Cotton Leaf Worm); test: Example B8: Spodoptera littoralis, systemic test, compound in agar taken up by lettuce roots; details: 144 h, test rate of 12.5 ppm, systemic via lettuce roots, 6 days after infestation, read-out: effect in at least one of the three categories (mortality, anti-feedancy, or growth inhibition)
Source text: Example B8: Spodoptera littoralis (Egyptian Cotton Leaf Worm)
Test compounds were applied by pipette from 10′000 ppm DMSO stock solutions into 24-well plates and mixed with agar. Lettuce seeds were placed on the agar and the multi well plate was closed by another plate which contains also agar. After 7 days the roots have absorbed the compound and the lettuce has grown into the lid plate. The lettuce leafs were now cut off into the lid plate. Spodoptera eggs were pipetted through a plastic stencil on a humid gel blotting paper and the plate closed with it. The samples were assessed for mortality, anti-feedant effect and growth inhibition in comparison to untreated samples 6 days after infestation.

[9] = tested on: Thrips tabaci (Onion Thrips); test: Example B10: Thrips tabaci, sprayed sunflower leaf discs, mixed ages; details: foliar, 144 h, application rate of 200 ppm, thrips population of mixed ages, 6 days after infestation
Experimental: Example B10: Thrips tabaci (Onion Thrips)
as §1, with “10′000 ppm” for “10′000”, “thrips” for “Frankliniella”, “6” for “7”

[10] = tested on: Tetranychus urticae (Two-Spotted Spider Mite); test: Example B9: Tetranychus urticae, sprayed bean leaf discs, mixed population; details: foliar, 192 h
Experimental: Example B9: Tetranychus urticae (Two-Spotted Spider Mite)
Bean leaf discs on agar in 24-well microtiter plates were sprayed with aqueous test solutions prepared from 10′000 ppm DMSO stock solutions. After drying the leaf discs were infested with a mite population of mixed ages. The samples were assessed for mortality on mixed population (mobile stages) 8 days after infestation.

CCS(=O)(=O)c1cc(-c2cc(F)cc(F)c2)cnc1-c1nc2cc(C(F)(F)F)nnc2n1C [P1, 6-[5-(3,5-difluorophenyl)-3-ethylsulfonyl-2-pyridyl]-7-methyl-3-(trifluoromethyl)imidazo[4,5-c]pyridazine]
≥ 80%: mortality at 200 ppm [1] | mortality at 200 ppm [2] | percent effect (mortality or growth inhibition) at 200 ppm [3] | mortality at 200 ppm [4] | mortality at 200 ppm [5] | percent effect (mortality or growth inhibition) at 200 ppm [6] | mortality at 200 ppm [7] | percent control (mortality, anti-feedancy or growth inhibition) at 12.5 ppm [8] | mortality at 200 ppm [9]

CCS(=O)(=O)c1cc(-n2ccc(C(F)(F)F)n2)cnc1-c1nc2cc(C(F)(F)F)nnc2n1C [P2, 6-[3-ethylsulfonyl-5-[3-(trifluoromethyl)pyrazol-1-yl]-2-pyridyl]-7-methyl-3-(trifluoromethyl)imidazo[4,5-c]pyridazine]
≥ 80%: mortality at 200 ppm [1] | mortality at 200 ppm [2] | percent effect (mortality or growth inhibition) at 200 ppm [3] | mortality at 200 ppm [5] | percent effect (mortality or growth inhibition) at 200 ppm [6] | mortality at 200 ppm [7] | mortality at 200 ppm [9]

CCS(=O)(=O)c1cc(-c2ccc(C(F)(F)F)cc2)cnc1-c1nc2cc(C(F)(F)F)nnc2n1C [P3]
≥ 80%: mortality at 200 ppm [2] | percent effect (mortality or growth inhibition) at 200 ppm [3] | mortality at 200 ppm [4] | mortality at 200 ppm [5] | percent effect (mortality or growth inhibition) at 200 ppm [6] | mortality at 200 ppm [7]

CCSc1cc(-c2ccc(C(F)(F)F)cc2)ccc1-c1nc2cc(C(F)(F)F)nnc2n1C [P4, 6-[2-ethylsulfanyl-4-[4-(trifluoromethyl)phenyl]phenyl]-7-methyl-3-(trifluoromethyl)imidazo[4,5-c]pyridazine]
≥ 80%: mortality at 200 ppm [2] | percent effect (mortality or growth inhibition) at 200 ppm [6] | mortality at 200 ppm [7]

CCS(=O)(=O)c1cc(-c2ccc(C(F)(F)F)cc2)ccc1-c1nc2cc(C(F)(F)F)nnc2n1C [P5]
≥ 80%: mortality at 200 ppm [2] | percent effect (mortality or growth inhibition) at 200 ppm [6] | mortality at 200 ppm [7] | mortality at 200 ppm [10]

From patent US10544148B2, “Pesticidally active tetracyclic heterocyclic derivatives with sulphur containing substituents” (Syngenta Participations AG, priority 2014, dated 2020)
